Measured values reported in PMC5799093, “Proceedings of Réanimation 2018, the French Intensive Care Society International Congress” (Annals of Intensive Care, 2018).
Where two headings read alike, the source gives them in different places.

Key:
[1] = Acute amitriptylin and clomipramine poisonings in the ICU, clinical features and pharmacokinetics; conditions: median; AMI [0.4 + 1.4], dose 1.5 g; CLO [0.5 + 1.4], dose 3.0 g
[2] = Delayed neuropsychiatric sequelae after carbon monoxide poisoning in outpatients
[3] = Population pharmacokinetics of cefotaxime and desacetylcefotaxime in critically ill children (P-168); format: in vivo, human (children)
Method: Patients and methods: All children aged less than 18 years, weighing more than 2.5 kg, and receiving intermittent CTX infusions were included. CTX and D-CTX were quantified by high performance liquid chromatography. Pharmacokinetics were described using the non-linear mixed effect modelling software MONOLIX. Monte Carlo simulations were used to optimize dosing regimen, in order to maintain serum concentration above the target concentration (defined at 2 mg L^−1) 100% of the time during the dosing interval.

[4] = tested on: Extended spectrum betalactamase producing Enterobacteriaceae; experiment: Antibiotic resistance of ESBL producing Enterobacteriaceae (P-147); format: cell-based; conditions: isolates 2015 and 2016
[5] = Residual serum concentrations of piperacillin and amoxicillin and neurological disorders (HPLC MS); format: in vivo, critically ill patients
Method: Patients and methods: This study was carried out retrospectively during the period 01.01.2015 to 08.02.2017, in patients hospitalized in the medical ICU-CHU Rouen with PTM.

[6] = Beta-lactam plasma concentrations in children with severe sepsis or septic shock (HPLC); conditions: current standard dosing
[7] = tested on: Candida isolates; experiment: Antifungal susceptibility of Candida isolates, Fungitest broth dilution; format: cell-based, Candida spp.
Method: Patients and methods: Our study is a retrospective review of 17 severely burned patients admitted to the burn unit of the Ben Arous Traumatology and Burns Center with one or more positive culture sites for Candida, during the 16-month period from May 2016 through August 2017. A total of 42 isolates were thus obtained. […] Since echinocandin and anidulafungine were recently introduced in Tunisia, the susceptibility to these antifungal classes was tested for only one patient from our cohort.

[8] = tested on: carbapenemase-producing Enterobacteriaceae; experiment: Antibiotic susceptibility of Enterobacteriaceae with decreased susceptibility to carbapenems; format: cell-based; conditions: for resistant rate: CA-SFM 2015
[9] = Cyproheptadine poisoning, retrospective series (P-180); format: in vivo, human
Method: Patients and methods: Retrospective study was performed between January 2008 and APRIL 2017. Epidemiological data clinical data and outcome were reviewed.

[10] = tested on: cardiogenic shock patients; experiment: OPTIMA CC double-blind randomized trial, epinephrine vs norepinephrine in cardiogenic shock after myocardial infarction; format: in vivo
Text: Patients and methods: Multicenter, double-blind, randomized trial in 8 french ICU. Cardiogenic shock patients due to myocardial infarction treated by PCI were randomized to receive epinephrine or norepinephrine to maintain MAP at 70 mmHg. Dobutamine was introduced at the physician discretion according to a combination of parameters—echocardiographic parameters, cardiac index, lactate clearance, SVO2 and Swan-Ganz derived parameters.

[11] = tested on: patients with severe alcohol withdrawal syndrome; experiment: Continuous-infusion midazolam for severe alcohol withdrawal syndrome, complications; format: in vivo
Text: Patients and methods: We retrospectively reviewed the medical records of all patients hospitalized for alcohol withdrawal syndrome between 2006 and 2016. Only those who received continous-infusion of BZD, associated with close clinical monitoring and the evaluation of RASS and Cushman scores, without systematic recourse to mechanical ventilation, were included.

[12] = Acute olanzapine poisoning in ICU (P-182); format: in vivo, human
Method: Patients and methods: Retrospective analysis of all cases of olanzapine intoxication admitted in 12-bed teaching ICU between January 2013 and Decembre 2017. Inclusion criteria were patient age ≥ 14 year, acute olanzapine intoxication, the intoxication severity was assessed by the Poisoning Severity Score (PSS) of the European Association of Poison Centres and Clinical Toxicologists. The evaluation of electrocardiograms was performed in the first day of hospitalization. The durations of QRS and QTc was measured and arrhythmias and conduction disorders was identified.

[13] = tested on: Acinetobacter baumannii; format: cell-based
Method: Patients and methods: From January 2012 to December 2016, a total of 2,182 non repetitive strains were isolated from blood cultures. Incubation of blood culture vials and the detection of bacterial growth were performed by the BACTEC system. All Isolated organisms were identified on the basis of standard microbiological techniques. Antibiotic susceptibility testing was carried out by the agar disk diffusion method, and susceptibility results were interpreted using clinical breakpoints according to CA-SFM 2013 and 2015 guidelines. Data were analyzed using the SIR-system. Minimum inhibitory concentrations of colistin, imipenem and vancomycin were determined using the Etest® method (bioMérieux).

[14] = tested on: Pseudomonas aeruginosa; experiment: Disk diffusion susceptibility of P. aeruginosa isolated from burned patients (P-48); format: cell-based; conditions: 485 strains from burned patients 2012-2015, disk diffusion, FSM breakpoints
[15] = tested on: anti-Xa activity; experiment: Pharmacokinetics of unfractionated heparin (anti-Xa activity) in children under ECMO (P-171); format: in vivo, human (children)
Method: Patients and methods: This is a single center retrospective study from March 2015 to September 2016. Were included children (< 18 years old age) who were under ECMO for refractory hemodynamic failure related to (i) myocarditis or (ii) septic shock. Anti-Xa activity time-courses were analyzed using a non linear mixed effects approach with Monolix version 2016R.

[16] = median (range), 49 children, one compartment model

Compound: CN(C)CCCN1c2ccccc2CCc2ccc(Cl)cc21 [CLO, clomipramine]
- plasma concentration [1]: 700 ng/mL

Compound: [C-]#[O+] [CO, Carbon monoxide]
- mean serum HbCO level on admission ([2]; 83 patients): 15 ± 8%
- persistent headaches ([2]; among identified disorders): 39%
- anxiety-depressive disorders ([2]; in vivo): 39%
- cognitive disorders ([2]; in vivo): 22%
- irritability ([2]; in vivo): 22%
- mean onset time of symptoms ([2]; in vivo): 5 ± 3 months
- prevalence of patients with delayed neuropsychiatric sequelae ([2]; telephone contact at 16 ± 9 months): 26%

Compound: CO/N=C(\C(=O)N[C@@H]1C(=O)N2C(C(=O)O)=C(COC(C)=O)CS[C@H]12)c1csc(N)n1 [CTX, cefotaxime]
- target attainment of calculated residual concentrations ([3]; intermittent infusions, target 2 mg L^−1): no patient succeeds to attain the target
- volume of distribution [3, 16]: 3.3 (0.85–20) L
- CTX clearance ([3]; median (range), 49 children, one compartment model, MONOLIX, HPLC): 0.97 (0.3–7.1) L h^−1

Compound: CO/N=C(\C(=O)N[C@@H]1C(=O)N2C(C(=O)O)=C(CO)CS[C@H]12)c1csc(N)n1 [D-CTX, desacetylcefotaxime]
- D-CTX clearance [3, 16]: 3.2 (0.6–16.3) L h^−1

Compound: CNC(C)C1CCC(N)C(OC2C(N)CC(N)C(OC3OCC(C)(O)C(NC)C3O)C2O)O1 (stereo not shown) [Gentamicin]
- rate of resistance [4]: 50%

Compound: CCn1cc(C(=O)O)c(=O)c2cc(F)c(N3CCNCC3)cc21 [Norfloxacin]
- rate of resistance [4]: 89.13%

Compound: CC1(C)S[C@@H]2[C@H](NC(=O)[C@H](N)c3ccc(O)cc3)C(=O)N2[C@H]1C(=O)O [amoxicillin]
- residual concentration associated with occurrence of neurological disorders ([5]; 80% specificity and sensitivity): greater than 40 mg L^−1
- residual serum concentration, patients with neurological disorders or wakefulness delays ([5]; HPLC MS): 157 ± 72 mg L^−1
- residual serum concentration, patients without neurological disorders ([5]; HPLC MS): 35.8 ± 13.0 mg L^−1
- patients with insufficient plasma concentration [6]: 86%

Compound: C[C@@H]1[C@H](O)[C@@H](C)/C=C/C=C/C=C/C=C/C=C/C=C/C=C/[C@H](O[C@@H]2O[C@H](C)[C@@H](O)[C@H](N)[C@@H]2O)C[C@@H]2O[C@](O)(C[C@@H](O)C[C@@H](O)[C@H](O)CC[C@@H](O)C[C@@H](O)CC(=O)O[C@H]1C)C[C@H](O)[C@H]2C(=O)O [amphotericin B]
- resistant strains [7]: Only one strain was resistant

Compound: C[C@H]1[C@H](NC(=O)/C(=N\OC(C)(C)C(=O)O)c2csc(N)n2)C(=O)N1S(=O)(=O)O [aztreonam]
- resistant rate [8]: 67%

Compound: Cc1nnc(SCC2=C(C(=O)O)N3C(=O)[C@@H](NC(=O)Cn4cnnn4)[C@H]3SC2)s1 [cefazoline, cefazolin]
- patients with insufficient plasma concentration [6]: 25%

Compound: CO/N=C(\C(=O)N[C@@H]1C(=O)N2C(C(=O)O)=C(COC(C)=O)CS[C@H]12)c1csc(N)n1 [cefotaxime]
- resistant rate [8]: 97%

Compound: CN1CCC(=C2c3ccccc3C=Cc3ccccc32)CC1 [cyproheptadine]
- delirium ([9]; 56 patients): 20%
- outcome ([9]; 56 patients): favorable in all cases
- patients with peripheral anti-cholinergic symptoms ([9]; 56 patients): Forty two
- median delay of symptoms onset ([9]; 56 patients, mean ingested dose 94 mg, range [1–14]): 3 h
- correlation between coma and assumed ingested dose ([9]; in vivo): no correlation
- mean duration of mechanical ventilation ([9]; six ventilated patients, ± 4): 17 h

Compound: CNC[C@H](O)c1ccc(O)c(O)c1 [epinephrine]
- arterial pH and lactate ([10]; H2 to H24): lactic acidosis from H2 to H24
- cardiac index and cardiac power index ([10]; epinephrine vs norepinephrine group): increased significantly more
- ECMO use ([10]; in vivo): 11%
- cardiac double product (surrogate of myocardial oxygen consumption) ([10]; in vivo): increased
- heart rate evolution ([10]; in vivo): increased significantly
- incidence of arrhythmia ([10]; in vivo): 41%
- mortality ([10]; in vivo): 52%
- incidence of refractory shock ([10]; titrated to MAP 70 mmHg, epinephrine n = 27, norepinephrine n = 30): 37%

Compound: OC(Cn1cncn1)(Cn1cncn1)c1ccc(F)cc1F [fluconazole]
- intermediate isolates [7]: 11.1%
- resistant isolates [7]: 11.1%
- susceptible isolates [7]: 77.8%

Compound: C[C@@H]1O[C@@H]1P(=O)(O)O [fosfomycin]
- susceptibility ([8]; colistin excepting with Proteus): 65%

Compound: CCC(C)n1ncn(-c2ccc(N3CCN(c4ccc(OCC5COC(Cn6cncn6)(c6ccc(Cl)cc6Cl)O5)cc4)CC3)cc2)c1=O (stereo not shown) [itraconazole]
- intermediate isolates [7]: 81.5%

Compound: CC(=O)N1CCN(c2ccc(OCC3COC(Cn4ccnc4)(c4ccc(Cl)cc4Cl)O3)cc2)CC1 (stereo not shown) [ketoconazole]
- intermediate isolates [7]: 40.7%

Compound: C[C@@H](O)[C@H]1C(=O)N2C(C(=O)O)=C(S[C@@H]3CN[C@H](C(=O)N(C)C)C3)[C@H](C)[C@H]12 [meropenem]
- patients with insufficient plasma concentration [6]: 50%

Compound: Clc1ccc(COC(Cn2ccnc2)c2ccc(Cl)cc2Cl)c(Cl)c1 (stereo not shown) [miconazole]
- intermediate isolates [7]: 33.3%

Compound: Cc1ncc2n1-c1ccc(Cl)cc1C(c1ccccc1F)=NC2 [midazolam]
- OR of intubation and or pneumonia for maximum perfusion velocity > 8 mg h ([11]; IC 95% (2.11–168.15)): 18.83
- patients developing pneumonia and or requiring intubation ([11]; continuous infusion, median maximum 8 mg h, n = 104): 12%
- cardiac arrest and death ([11]; n = 104): No cardiac arrest and death was observed
- patients with seizures ([11]; n = 104): 8%

Compound: Cc1cc2c(s1)Nc1ccccc1N=C2N1CCN(C)CC1 [olanzapine, Olanzapine]
- mean duration of prolonged QTc ([12]; 5 cases): 460 ± 28 ms
- Poisoning Severity Score moderate, monointoxication ([12]; 8 patients, 3 cases): 37.5%
- Poisoning Severity Score severe, monointoxication ([12]; 8 patients, 4 cases): 50%
- Poisoning Severity Score fatal ([12]; 24 patients): 1 case
- Poisoning Severity Score moderate ([12]; 24 patients, 9 cases): 37.5%
- Poisoning Severity Score severe ([12]; 24 patients, 14 cases): 58%
- agitation ([12]; n = 8 of 24): 33%
- miosis ([12]; n = 15 of 24): 62%
- tachycardia ([12]; n = 15 of 24): 62%
- Coma Glosgow Scale < 12 ([12]; of 24): 14 cases
- mechanical ventilation required ([12]; of 24): 58%
- prolonged QTc ([12]; of 24): 5 cases
- QRS enlargement on the ECG (human, in vivo): 10%
- QT widening (human, in vivo): 23%
- abolished tendon reflexes (human, in vivo): 31%
- increased tendon reflexes (human, in vivo): 28%
- mydriasis (human, in vivo): 10%
- myorelaxation (human, in vivo): 68%
- myosis (human, in vivo): 39%
- seizures (human, in vivo): No seizure was observed
- plasma concentration on admission (median [0.185 + 0.820], ingested dose 200 mg [110 + 333], n = 71): 310 ng/mL
- Glasgow coma score (median [percentiles 25 + 75], multidrug ingestion): 4 [3 + 8]
- elimination in overdose (non-compartmental analysis): prolonged olanzapine elimination at elevated concentrations
- died in the ICU (patients with pre-hospital cardiac arrest): 4%

Compound: CO[C@H]1/C=C/O[C@@]2(C)Oc3c(C)c(O)c4c(O)c(c(/C=N/N5CCN(C)CC5)c(O)c4c3C2=O)NC(=O)/C(C)=C\C=C\[C@H](C)[C@H](O)[C@@H](C)[C@@H](O)[C@@H](C)[C@H](OC(C)=O)[C@@H]1C [rifampicin]
- resistance rate ([13]; by 2016): 67%
- resistance rate ([13]; in 2014): 15%

Compound: CC1(C)S[C@@H]2[C@H](NC(=O)[C@H](C(=O)O)c3ccsc3)C(=O)N2[C@H]1C(=O)O [ticarcillin]
- strains resistant [14]: 69%

Compound: unfractionated heparin
- typical clearance (CLTYP) ([15]; 12 children under ECMO, one-compartment, scaled to 70 kg): 2.42 L/h
- typical volume of distribution (VTYP) ([15]; 12 children under ECMO, scaled to 70 kg): 5.1 L
- samples with anti-Xa activity > 0.6 IU mL ([15]; 37 of 214 samples): 17%
- samples with anti-Xa activity < 0.4 IU mL ([15]; 81 of 214 samples): 38%
- samples with anti-Xa activity in the target (0.4 to 0.6 IU mL) ([15]; 96 of 214 samples, 12 children): 45%
- bleeding ([15]; of 12): 2 children
- thrombosis ([15]; of 12): 4 children
